According to PubChem BioAssay (NCI):
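Interpolation was linear, between the two tested concentrations surrounding the appropriate level; five concentrations were tested over 48 hours in 96-well plates. GI50 marks 50% less growth. The concentration for full growth arrest is given as TGI.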

Experiments:
Test in all cases: growth of human tumour cells (NCI), 48 h
HCC-2998 colon = test system: HCC-2998 colon
HCT-116 colon = test system: HCT-116 colon
HOP-62 NSCLC = test system: HOP-62 NSCLC
HT29 colon = test system: HT29 colon
IGROV1 ovarian = test system: IGROV1 ovarian
MALME-3M melanoma = test system: MALME-3M melanoma
NCI-H522 lung = test system: NCI-H522 lung
OVCAR-3 ovarian = test system: OVCAR-3 ovarian
SK-OV-3 ovarian = test system: SK-OV-3 ovarian
TK-10 renal = test system: TK-10 renal

Compound: Oc1c(CN2CCN(c3ccccc3F)CC2)cc(Br)c2cccnc12
- GI50 (HCC-2998 colon): 2.87 µM
- TGI (HCC-2998 colon): 15.1 µM
- GI50 (HCT-116 colon): 0.546 µM
- TGI (HCT-116 colon): > 40.7 µM
- GI50 (HOP-62 NSCLC): 0.596 µM
- TGI (HOP-62 NSCLC): 14.2 µM
- GI50 (HT29 colon): 11.3 µM
- TGI (HT29 colon): 40.5 µM
- GI50 (IGROV1 ovarian): 0.808 µM
- TGI (IGROV1 ovarian): 14.5 µM
- GI50 (MALME-3M melanoma): 1.89 µM
- TGI (MALME-3M melanoma): 9.46 µM
- GI50 (NCI-H522 lung): 0.662 µM
- TGI (NCI-H522 lung): 5.05 µM
- GI50 (OVCAR-3 ovarian): 0.576 µM
- TGI (OVCAR-3 ovarian): 21.2 µM
- GI50 (SK-OV-3 ovarian): 1.45 µM
- TGI (SK-OV-3 ovarian): 27.9 µM
- GI50 (TK-10 renal): 5.45 µM
- TGI (TK-10 renal): 29 µM

Compound: Cc1c(-c2nnc(-c3cc(Cl)c(Cl)cc3Cl)o2)nnn1-c1ccnc2c(C(F)(F)F)cccc12
- GI50 (HCC-2998 colon): 29.1 µM
- TGI (HCC-2998 colon): 91.9 µM
- GI50 (HCT-116 colon): 17.9 µM
- TGI (HCT-116 colon): 34.8 µM
- GI50 (HOP-62 NSCLC): 20.5 µM
- TGI (HOP-62 NSCLC): 47.7 µM
- GI50 (HT29 colon): 22.3 µM
- TGI (HT29 colon): 42.2 µM
- GI50 (IGROV1 ovarian): 27.1 µM
- TGI (IGROV1 ovarian): 71.7 µM
- GI50 (MALME-3M melanoma): 19.2 µM
- TGI (MALME-3M melanoma): 51.1 µM
- GI50 (NCI-H522 lung): 21.8 µM
- TGI (NCI-H522 lung): 55.8 µM
- GI50 (OVCAR-3 ovarian): 27.5 µM
- TGI (OVCAR-3 ovarian): 82.7 µM
- GI50 (SK-OV-3 ovarian): 24.5 µM
- TGI (SK-OV-3 ovarian): 61.1 µM
- GI50 (TK-10 renal): 32.2 µM
- TGI (TK-10 renal): 87 µM

Compound: CC(CN)[C@@H]1CC[C@]2(CO)CC[C@]3(C)[C@H](CC[C@@H]4[C@@]5(C)CCC(N)C(C)(C)[C@@H]5CC[C@]43C)[C@@H]12 (stereo not given in full)
- GI50 (HCC-2998 colon): 1.89 µM
- TGI (HCC-2998 colon): 3.66 µM
- GI50 (HCT-116 colon): 1.68 µM
- TGI (HCT-116 colon): 3.59 µM
- GI50 (HOP-62 NSCLC): 1.84 µM
- TGI (HOP-62 NSCLC): 3.55 µM
- GI50 (HT29 colon): 1.57 µM
- TGI (HT29 colon): 3.03 µM
- GI50 (IGROV1 ovarian): 1.86 µM
- TGI (IGROV1 ovarian): 3.78 µM
- GI50 (MALME-3M melanoma): 1.54 µM
- TGI (MALME-3M melanoma): 3.29 µM
- GI50 (NCI-H522 lung): 1.81 µM
- TGI (NCI-H522 lung): 3.45 µM
- GI50 (OVCAR-3 ovarian): 1.71 µM
- TGI (OVCAR-3 ovarian): 3.24 µM
- GI50 (SK-OV-3 ovarian): 1.86 µM
- TGI (SK-OV-3 ovarian): 3.29 µM
- GI50 (TK-10 renal): 1.69 µM
- TGI (TK-10 renal): 3.1 µM

Compound: FC(F)(F)c1nc(-c2ccccc2)oc1Sc1oc(-c2ccccc2)nc1C(F)(F)F
- TGI (HCC-2998 colon): > 100 µM
- TGI (HCT-116 colon): > 100 µM
- TGI (HOP-62 NSCLC): > 100 µM
- TGI (HT29 colon): > 100 µM
- TGI (IGROV1 ovarian): > 100 µM
- TGI (MALME-3M melanoma): > 100 µM
- TGI (NCI-H522 lung): > 100 µM
- TGI (OVCAR-3 ovarian): > 100 µM
- TGI (SK-OV-3 ovarian): > 100 µM
- TGI (TK-10 renal): > 100 µM

Compound: Cc1ccc(NC(=O)CC2C(=O)Nc3ccccc3S2=O)c(C)c1 (stereo not given)
- TGI (HCC-2998 colon): > 72.6 µM
- TGI (HCT-116 colon): 38.3 µM
- TGI (HOP-62 NSCLC): 38.1 µM
- TGI (HT29 colon): 20.4 µM
- TGI (IGROV1 ovarian): 42.1 µM
- TGI (MALME-3M melanoma): > 68.2 µM
- TGI (NCI-H522 lung): 22 µM
- TGI (OVCAR-3 ovarian): 23.2 µM
- TGI (SK-OV-3 ovarian): 33.9 µM
- TGI (TK-10 renal): 56.5 µM

Compound: Clc1ccc2c(NCCNc3nc(N4CCCC4)nc4ccccc34)ccnc2c1
- GI50 (HCC-2998 colon): 1.78 µM
- TGI (HCC-2998 colon): 4.37 µM
- GI50 (HCT-116 colon): 0.309 µM
- TGI (HCT-116 colon): 1.02 µM
- GI50 (HOP-62 NSCLC): 1.49 µM
- TGI (HOP-62 NSCLC): 3.49 µM
- GI50 (HT29 colon): 0.0943 µM
- TGI (HT29 colon): 1.39 µM
- GI50 (IGROV1 ovarian): 1.65 µM
- TGI (IGROV1 ovarian): 4.6 µM
- GI50 (MALME-3M melanoma): 1.91 µM
- TGI (MALME-3M melanoma): 3.6 µM
- GI50 (NCI-H522 lung): 1.36 µM
- TGI (NCI-H522 lung): 3.1 µM
- GI50 (OVCAR-3 ovarian): 0.492 µM
- TGI (OVCAR-3 ovarian): 1.07 µM
- GI50 (SK-OV-3 ovarian): 1.71 µM
- TGI (SK-OV-3 ovarian): 3.16 µM
- GI50 (TK-10 renal): 2.07 µM
- TGI (TK-10 renal): 4.2 µM

Compound: C=CCSSc1ncnc2c1ncn2C1OC(CO)C(O)C1O (stereo not given)
- GI50 (HCC-2998 colon): 3.06 µM
- TGI (HCC-2998 colon): 60 µM
- GI50 (HCT-116 colon): 2.96 µM
- TGI (HCT-116 colon): > 45.4 µM
- GI50 (HOP-62 NSCLC): 1.78 µM
- TGI (HOP-62 NSCLC): > 100 µM
- GI50 (HT29 colon): 2.7 µM
- TGI (HT29 colon): > 93.6 µM
- GI50 (IGROV1 ovarian): 0.0257 µM
- TGI (IGROV1 ovarian): 0.644 µM
- GI50 (MALME-3M melanoma): 2.48 µM
- TGI (MALME-3M melanoma): > 47.4 µM
- GI50 (NCI-H522 lung): 1.34 µM
- TGI (NCI-H522 lung): 10.7 µM
- GI50 (OVCAR-3 ovarian): 0.829 µM
- TGI (OVCAR-3 ovarian): > 32.7 µM
- GI50 (SK-OV-3 ovarian): 0.501 µM
- TGI (SK-OV-3 ovarian): > 87.2 µM
- GI50 (TK-10 renal): 0.598 µM
- TGI (TK-10 renal): > 42.3 µM
